Literature values in patent US20080003280A1, “Combination cough treatment compounds and method of treating common coughs” (priority 2006, published 2008).

Legend:
[1] = system: cough induced with a capsaicin challenge
cough [2] = conditions: patients with an upper respiratory tract infection; in combination with a decongestant
cough [3] = system: cough

Cn1cnc2c1c(=O)[nH]c(=O)n2C [Theobromine, 3,7-dihydro-3,7-dimethyl-1H-purine-2,6-dione]
mucociliary clearance ([1]; discovered in the same study): stimulates mucociliary clearance
toxicity ([1]; discovered in the same study): low toxicity
antitussive effect ([1]; patients, capsaicin challenge, in comparison to codeine and caffeine, FIG. 2): strong and long lasting antitussive effect, comparable, in fact to codeine

CN(C)CCC(c1ccc(Br)cc1)c1ccccn1 (stereo not drawn) [brompheniramine]
effect on cough (cough [2]): improvement in cough

COc1ccc2c(c1)[C@]13CCCC[C@@H]1[C@H](C2)N(C)CC3 [dextromethorphan]
cough suppression (cough [3]; 60 mg/dose in adults): Significant cough suppression
antitussive effect (cough [3]; adults, dose 15-30 mg (30 mg in FIG. 4), versus placebo): no greater than placebo
